# Laboratory results: PMC11314063, “Inhibition of DNA Topoisomerase Ι by Flavonoids and Polyacetylenes Isolated from Bidens pilosa L” (Molecules, 2024)
# Key:
# HCT116 = assay: SRB cytotoxicity assay, HCT116; type: cell-based; settings: Homo sapiens, HCT-116; SRB assay, 48 h, mean ± SD; read-out: IC50 Cytotoxicity HCT116
# Text: (§1) The cell lines MDA-MB-231 (No. TCHu227), A549 (No. TCHu150), and HepG2 (No. TCHu72) were obtained from the Cell Bank/Stem Cell Bank, Chinese Academy of Sciences (Shanghai, China). The cell lines DLD-1 (No. CC0507) and HCT116 (No. CC0506) were obtained from the Cell Bank of Cellcook Biotech Co., Ltd. (Guangzhou, China). Cell line HL-7702 (No. BNCC338358) was obtained from Bena Culture Collection (Zhengzhou, China).
# (§2) The human cancer cell lines MDA-MB-231 (breast adenocarcinoma), DLD-1 (colorectal adenocarcinoma), A549 (lung epithelial carcinoma), HCT116 (colorectal adenocarcinoma), HepG2 (hepatocellular carcinoma), and human hepatocyte HL-7702 were cultured in Dulbecco’s modified eagle medium (DMEM, Biological Industries, Beit Haemek, Israel) containing 10% (v/v) fetal bovine serum (FBS, Biological Industries, Beit Haemek, Israel) at 37 °C in a humidified incubator (ThermoFisher, Carlsbad, CA, USA) with a 5% CO2 atmosphere.
# [1] = SRB cytotoxicity assay, hepatocyte HL-7702; type: cell-based, human; settings: HL-7702 hepatocyte cell line; SRB assay, 48 h, human hepatocyte, mean ± SD; read-out: IC50 Cytotoxicity HL-7702
# Text: as §1, §2
# HCT116 cells = assay: DNA content analysis (cell cycle, flow cytometry) in HCT116; type: cell-based, human; settings: 24 h
# Protocol: (§3) Cells were seeded in 6-well plates and allowed to adhere for 24 h at 37 °C. After treatment with different concentrations of the samples for another 24 h, the cells were harvested and washed with PBS, and then, the DNA content analysis was conducted with a cell cycle staining kit (Multi sciences, Hangzhou, China), according to the manufacturer’s instructions. The fluorescence intensity of the cells was measured by flow cytometry (Beckman CytoFlex, Miami, FL, USA).
# Figure S21 Results of flavonoid 5 induced cell cycle arrests in HCT116 cells. A)
# Representative images of flow-cytometry analysis of DNA content; B) Statistic analysis
# of cells in G1, S, and G2/M phase after treated with 5. After treatment with 2 and 1 μM
# compounds 5 for 24 h, the percentages of cell population in the G2/M phase
# respectively, which meant a potent G2/M cell cycle arrest caused by the treatment (P<
# 0.0001). In addition, after treatment with 0.5 μM compounds 5 for 24 h, the percentages
# that an apparent G1 or S phase arrest was induced after the treatment with a lower
# different from the vehicle control. Data are expressed as mean ± SD values from three
# (1 picture or pasted object on this page, not shown here)
# DLD-1 = assay: SRB cytotoxicity assay, DLD-1; type: cell-based; settings: Homo sapiens, DLD-1; SRB assay, 48 h, mean ± SD; read-out: IC50 Cytotoxicity DLD-1
# Text: as §1, §2
# MDA-MB-231 = assay: SRB cytotoxicity assay, MDA-MB-231; type: cell-based; settings: Homo sapiens, MDA-MB-231; SRB assay, 48 h, mean ± SD; read-out: IC50 Cytotoxicity MDA-MB-231
# Text: as §1, §2
# HepG2 = assay: SRB cytotoxicity assay, HepG2; type: cell-based; settings: Homo sapiens, HepG2; SRB assay, 48 h, mean ± SD; read-out: IC50 Cytotoxicity HepG2
# Text: as §1, §2
# DLD-1 cells [2] = assay: DNA content analysis (cell cycle, flow cytometry) in DLD-1; type: cell-based, human; settings: 24 h
# Protocol: as §3
# DLD-1 cells [3] = assay: Western blot of cell cycle-related proteins in DLD-1; type: cell-based, human; settings: 24 h
# Protocol: Cells treated with the compounds were harvested, and the total protein was isolated with lysis buffer (72 mM Tris pH 6.8, 2% SDS, 10% glycerol, and 0.1% bromophenol blue). The proteins were subjected to SDS-PAGE and transferred to a 0.45 μm PVDF membrane (Millipore, Burlington, USA). After being blocked with 5% non-fat milk in TBST, the membranes were washed and then incubated with specific primary antibodies (Cdk2 and Cdk6 were purchased from BBI Life Sciences Corporation, Shanghai, China; cyclin A, cyclin B, cyclin D, cyclin E, Cdk1, and Cdk4 were purchased from Proteintech, Rosemont, IL, USA) in TBST containing 2% non-fat milk overnight at 4 °C. After washing, the membranes were incubated with secondary horseradish peroxidase (HRP)-conjugated antibodies at room temperature for 1 h. The blot was visualized using an enhanced chemiluminescence assay kit (Meilunbio, Dalian, China) under a chemiluminescence detector (Tanon, Shanghai, China). The band density of the blot was quantified by the ImageJ software with at least three independent experiments.
# DNA Topo I = target: T1, DNA Topo I (Homo sapiens, UniProt P11387); assay: Topo I inhibition assay (DNA relaxation assay); type: biochemical; settings: DNA relaxation assay, pBR322, mean ± SD
# T1 construct: purchased ThermoFisher, Waltham, MA, USA
# T1 sequence (P11387 1-765): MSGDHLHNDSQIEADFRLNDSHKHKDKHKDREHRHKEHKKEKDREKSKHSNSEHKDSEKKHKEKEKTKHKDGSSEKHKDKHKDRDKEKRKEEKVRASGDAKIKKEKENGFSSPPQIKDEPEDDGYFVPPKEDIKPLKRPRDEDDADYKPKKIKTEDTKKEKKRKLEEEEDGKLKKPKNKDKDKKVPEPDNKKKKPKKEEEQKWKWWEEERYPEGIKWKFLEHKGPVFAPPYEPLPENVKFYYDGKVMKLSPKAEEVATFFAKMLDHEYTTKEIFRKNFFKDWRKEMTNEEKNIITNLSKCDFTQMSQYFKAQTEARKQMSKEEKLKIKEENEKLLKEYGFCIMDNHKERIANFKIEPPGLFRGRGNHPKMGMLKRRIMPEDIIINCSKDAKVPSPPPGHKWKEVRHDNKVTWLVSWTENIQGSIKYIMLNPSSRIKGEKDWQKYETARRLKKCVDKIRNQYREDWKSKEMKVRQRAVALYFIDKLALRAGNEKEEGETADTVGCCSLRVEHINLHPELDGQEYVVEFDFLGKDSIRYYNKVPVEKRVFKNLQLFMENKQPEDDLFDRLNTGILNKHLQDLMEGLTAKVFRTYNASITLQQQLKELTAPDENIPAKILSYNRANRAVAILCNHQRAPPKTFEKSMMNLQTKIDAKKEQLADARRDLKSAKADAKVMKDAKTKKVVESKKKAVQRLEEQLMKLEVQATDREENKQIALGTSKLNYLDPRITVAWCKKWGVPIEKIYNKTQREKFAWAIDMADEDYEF
# Protocol: The DNA relaxation assay was adopted to investigate the compounds’ inhibitory activities on Topo I. Different concentrations of the compounds, dissolved and diluted in DMSO, were added into the relaxation buffer (50 mM Tris, pH 7.5, 50 mM KCl, 10 mM MgCl2, 0.1 mM EDTA, 0.5 Mm dithiothreitol, and 0.05 mg/mL bovine serum albumin) containing 0.2 U Topo I (ThermoFisher, Waltham, MA, USA) and incubated at room temperature for 10 min. After that, 500 ng supercoiled pBR322 plasmid DNA (ThermoFisher, Waltham, MA, USA) was added and then incubated at 37 °C for another 30 min. Finally, the reactions were stopped with a stopping solution (5% sodium dodecyl sulfate, 0.0025% bromophenol blue, and 25% glycerol), and the mixtures were applied onto 0.8% agarose gel and subjected to electrophoresis for 1.5 h in Tris-Acetate-EDTA buffer. After being stained with GelRed (Biotium, Fremont, CA, USA), the gel was imagined with the imaging system (Biotop, Shanghai, China). […] The band density of the supercoiled DNA was quantified by the ImageJ software (version 1.53a, National Institutes of Health, Bethesda, MD, USA), and the inhibition activity is expressed as the percentage inhibition and calculated by formula: Inhibition % = [(A − B)/(C − B)] × 100%, where A is the band density of the tested samples, B is the band density of the negative control, and C is the band density of the blank control.
# A549 = assay: SRB cytotoxicity assay, A549; type: cell-based; settings: Homo sapiens, A549; SRB assay, 48 h, mean ± SD; read-out: IC50 Cytotoxicity A549
# Text: as §1, §2
compound,measurement,setting,value
COc1ccc(-c2oc3cc(O)c(OC)c(O)c3c(=O)c2OC)cc1O [Compound 5],IC50,HCT116,790 ± 130 nM
same,IC50 at 48 h,[1],14.4 ± 0.45 µM
same,percentage of cells in the G1/S phase,"HCT116 cells; HCT116, 0.5 μM",91.23%
same,percentage of cell population in the G2/M phase,"HCT116 cells; HCT116, 1 μM",81.84%
same,percentage of cells in G1/S (combined) phase,"HCT116 cells; HCT116, 1 μM",18.13%
same,percentage of cell population in the G2/M phase,"HCT116 cells; HCT116, 2 μM",89.72%
same,percentage of cells in G1/S (combined) phase,"HCT116 cells; HCT116, 2 μM",10.16%
same,IC50,DLD-1,600 ± 50 nM
same,IC50,MDA-MB-231,39.7 ± 4.58 µM
same,IC50,HepG2,40.3 ± 11.1 µM
same,percentage of cells in the G1/S phase,"DLD-1 cells [2]; DLD-1, 0.5 μM",85.30%
same,percentage of cells in the G1/S phase,"DLD-1 cells [2]; DLD-1, 1 μM",76.83%
same,percentage of cell population in the G2/M phase,"DLD-1 cells [2]; DLD-1, 2 μM",86.05%
same,percentage of cells in the G1/S (combined) phase,"DLD-1 cells [2]; DLD-1, 2 μM",13.46%
same,"expression levels of cyclin A, cyclin B, and CDK6","DLD-1 cells [3]; DLD-1, 2 μM",potently decreased
same,"expression of cylcin D, cyclin E, and CDK6","DLD-1 cells [3]; DLD-1, 1 and 0.5 μM",potent downregulation
same,IC50,DNA Topo I,146 ± 7.88 µM
same,IC50,A549,2160 ± 300 nM
